pEC50: −log10 of the molar value.
test system: HCV 1b-377-neo replicon cells; assay: HCV replicon assay, HCV 1b-377-neo replicon cells (1b FRET); format: cell-based, Hepatitis C virus genotype 1b; conditions: HCV 1b-377-neo replicon cells; HCV 1b genotype; read-out: EC50 range against HCV 1b (Table 2, Range)
Method in brief: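 FRET-based replicon assay in HCV 1b-377-neo cells, including a comparison line carrying the NS5A Y2065H mutation that confers resistance to a reference compound.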

How did the pEC50 turn out when “methyl ((1R)-2-((2S)-2-(5-(4′-(2-((2S)-1-(3- benzoylbenzyl)-2-pyrrolidinyl)-1H- imidazol-5-yl)-4-biphenylyl)-1H-imidazol-2- yl)-1-pyrrolidinyl)-2-oxo-1- phenylethyl)carbamate [Example 84-34]” was run?
The pEC50 was 7.00 to 9.00.

`COC(=O)N[C@@H](C(=O)N1CCC[C@H]1c1ncc(-c2ccc(-c3ccc(-c4cnc([C@@H]5CCCN5C(=O)Cc5ccccc5CN5CCCC5)[nH]4)cc3)cc2)[nH]1)c1ccccc1` [Example 84-86, methyl ((1R)-2-oxo-1-phenyl-2-((2S)-2-(5-(4′-(2-((2S)-1-((2-(1-pyrrolidinylmethyl)phenyl)acetyl)-2-pyrrolidinyl)-1H-imidazol-5-yl)-4-biphenylyl)-1H-imidazol-2-yl)-1-pyrrolidinyl)ethyl)carbamate] was tested. Which pEC50 did it give?
Its pEC50 is 9.00 to 12.00.

same assay, conditions: Hepatitis C virus, HCV 1b-377-neo replicon cells; HCV 1b genotype; read-out: EC50 range against HCV 1b (Table 2, Range)

`O=C([C@@H]1CCN(Cc2ccccc2)C1)N1CCC[C@H]1c1ncc(-c2ccc(-c3ccc(-c4cnc([C@@H]5CCCN5C(=O)[C@@H](c5ccccc5)N5CCCCC5)[nH]4)cc3)cc2)[nH]1` [Example 107-17] was tested. Which pEC50 did it give?
The pEC50 was 9.00 to 12.00.

With `CCN(CC)[C@H](COC)C(=O)N1CCC[C@H]1c1ncc(-c2ccc(-c3ccc(-c4cnc([C@@H]5CCCN5C(=O)[C@@H](NC(=O)OC)C(C)C)[nH]4)cc3)cc2)[nH]1` [Example M91, methyl ((1S)-1-(((2S)-2-(5-(4′-(2-((2S)-1-(N,N-diethyl-O-methyl-D-seryl)-2-pyrrolidinyl)-1H-imidazol-5-yl)-4-biphenylyl)-1H-imidazol-2-yl)-1-pyrrolidinyl)carbonyl)-2-methylpropyl)carbamate] as the compound, how does the pEC50 read?
Its pEC50 is 7.00 to 9.00.

`COC(=O)N[C@@H](C(=O)N1CCC[C@H]1c1ncc(-c2ccc(-c3ccc(-c4cnc([C@@H]5CCCN5C(=O)[C@@H]5CCCO5)[nH]4)cc3C)cc2)[nH]1)c1ccccc1` [Example 128, methyl ((1R)-2-((2S)-2-(5-(2′-methyl-4′-(2-((2S)-1-((2S)-tetrahydro-2-furanylcarbonyl)-2-pyrrolidinyl)-1H-imidazol-5-yl)-4-biphenylyl)-1H-imidazol-2-yl)-1-pyrrolidinyl)-2-oxo-1-phenylethyl)carbamate] was tested. Which pEC50 did it give?
Its pEC50 is 9.00 to 12.00.

With `CC(=O)N[C@@H](C(=O)N1CCC[C@H]1c1ncc(-c2ccc(-c3ccc(-c4cnc([C@@H]5CCCN5C(=O)[C@H](NC(C)=O)c5ccccc5)[nH]4)cc3)cc2)[nH]1)c1ccccc1` [Example 25, N,N′-(4,4′-biphenyldiylbis(1H-imidazole-5,2-diyl(2S)-2,1-pyrrolidinediyl((1R)-2-oxo-1-phenyl-2,1-ethanediyl)))diacetamide] as the compound, how does the pEC50 read?
The pEC50 was 9.00 to 12.00.

How did the pEC50 turn out when `COC(=O)NC(C(=O)N1CCC[C@H]1c1ncc(-c2ccc(-c3ccc(-c4cnc([C@@H]5CCCN5C(=O)[C@@H](NC(=O)OC)C(C)C)[nH]4)cc3)cc2F)[nH]1)[C@@H](C)OC` (stereo in doubt) [Example D42, methyl ((1S,2R)-1-(((2S)-2-(5-(3-fluoro-4′-(2-((2S)-1-(N-(methoxycarbonyl)-L-valyl)-2-pyrrolidinyl)-1H-imidazol-5-yl)-4-biphenylyl)-1H-imidazol-2-yl)-1-pyrrolidinyl)carbonyl)-2-methoxypropyl) carbamate] was run?
The pEC50 was 9.00 to 12.00.

With `COC(=O)N[C@@H]1CCCC[C@@H]1C(=O)N1CCC[C@H]1c1ncc(-c2ccc(-c3ccc(-c4cnc([C@@H]5CCCN5C(=O)[C@H](NC(C)=O)c5ccccc5)[nH]4)cc3)cc2)[nH]1` [cj-98, methyl ((1R,2S)-2-(((2S)-2-(5-(4′-(2-((2S)-1-((2R)-2-acetamido-2-phenylacetyl)-2-pyrrolidinyl)-1H-imidazol-5-yl)-4-biphenylyl)-1H-imidazol-2-yl)-1-pyrrolidinyl)carbonyl)cyclohexyl)carbamate] as the compound, how does the pEC50 read?
The pEC50 was 9.00 to 12.00.

With `C=CCCOC(=O)N[C@H](C(=O)N1CCC[C@H]1c1ncc(-c2ccc(-c3ccc(-c4cnc([C@@H]5CCCN5C(=O)[C@@H](NC(=O)OCCC=C)C(C)C)[nH]4)cc3)cc2)[nH]1)C(C)C` [LS16, 3-buten-1-yl ((1S)-1-(((2S)-2-(5-(4′-(2-((2S)-1-((2S)-2-(((3-buten-1-yloxy)carbonyl)amino)-3-methylbutanoyl)-2-pyrrolidinyl)-1H-imidazol-5-yl)-4-biphenylyl)-1H-imidazol-2-yl)-1-pyrrolidinyl)carbonyl)-2-methylpropyl)carbamate] as the compound, how does the pEC50 read?
The pEC50 was 7.00 to 9.00.

`CC(=O)OC(C(=O)N1CCC[C@H]1c1ncc(-c2ccc(-c3ccc(-c4cnc([C@@H]5CCCN5C(=O)[C@@H](c5ccccc5)N5CCCCC5)[nH]4)cc3)cc2)[nH]1)c1ccccc1` (stereo in doubt) [Example 107-1, (1S)-2-oxo-1-phenyl-2-((2S)-2-(5-(4′-(2-((2S)-1-((2R)-2-phenyl-2-(1-piperidinyl)acetyl)-2-pyrrolidinyl)-1H-imidazol-5-yl)-4-biphenylyl)-1H-imidazol-2-yl)-1-pyrrolidinyl) ethyl acetate] was tested. Which pEC50 did it give?
Its pEC50 is 9.00 to 12.00.

`CC(C)[C@@H](C(=O)N1CCC[C@H]1c1ncc(-c2ccc(-c3ccc(-c4cnc([C@@H]5CCCN5C(=O)[C@H](C(C)C)N5CCCNC5=O)[nH]4)cc3)cc2)[nH]1)N1CCCNC1=O` [OL-5, 1,1′-(4,4′-biphenyldiylbis(1H-imidazole-4,2-diyl(2S)-2,1-pyrrolidinediyl((2S)-3-methyl-1-oxo-1,2-butanediyl)))ditetrahydro-2(1H)-pyrimidinone] was tested. Which pEC50 did it give?
Its pEC50 is 9.00 to 12.00.

How did the pEC50 turn out when `O=C(C(c1ccccc1)N1CCNCC1)N1CCC[C@H]1c1ncc(-c2ccc(-c3ccc(-c4c[nH]c([C@@H]5CCCN5C(=O)[C@H]5CCCO5)n4)cc3)cc2)[nH]1` (stereo partly drawn) [Example 103-7, 1-(2-oxo-1-phenyl-2-((2S)-2-(5-(4′-(2-((2S)-1-((2R)-tetrahydro-2-furanylcarbonyl)-2-pyrrolidinyl)-1H-imidazol-4-yl)-4-biphenylyl)-1H-imidazol-2-yl)-1-pyrrolidinyl)ethyl)piperazine] was run?
Its pEC50 is 9.00 to 12.00.

With `CN(C)[C@@H](C(=O)N1CCC[C@H]1c1ncc(-c2ccc(-c3ccc(-c4cnc([C@@H]5CCCN5C(=O)[C@@H](c5ccccc5)N5CCCC5)[nH]4)cc3)cc2)[nH]1)c1ccccc1` [Example 90, (1R)-N,N-dimethyl-2-oxo-1-phenyl-2-((2S)-2-(5-(4′-(2-((2S)-1-((2R)-2-phenyl-2-(1-pyrrolidinyl)acetyl)-2-pyrrolidinyl)-1H-imidazol-5-yl)-4-biphenylyl)-1H-imidazol-2-yl)-1-pyrrolidinyl)ethanamine] as the compound, how does the pEC50 read?
Its pEC50 is 9.00 to 12.00.

With `COC(=O)N[C@@H](C(=O)N1CCC[C@H]1c1ncc(-c2cnc(-c3ccc(-c4[nH]c([C@@H]5CCCN5C(=O)[C@H](NC(=O)OC)c5ccccc5)nc4C(F)(F)F)cc3)nc2)[nH]1)c1ccccc1` [Example J46, methyl ((1R)-2-((2S)-2-(5-(4-(5-(2-((2S)-1-((2R)-2-((methoxycarbonyl)amino)-2-phenylacetyl)-2-pyrrolidinyl)-1H-imidazol-5-yl)-2-pyrimidinyl)phenyl)-4-(trifluoromethyl)-1H-imidazol-2-yl)-1-pyrrolidinyl)-2-oxo-1-phenylethyl)carbamate] as the compound, how does the pEC50 read?
Its pEC50 is 9.00 to 12.00.

How did the pEC50 turn out when `COC(=O)N[C@@H](C(=O)N1CCC[C@H]1c1ncc(-c2ccc(-c3ccc(-c4cnc([C@@H]5CCCN5C(=O)Cc5ccc(Cl)cc5)[nH]4)cc3)cc2)[nH]1)c1ccccc1` [Example 84-68, methyl ((1R)-2-((2S)-2-(5-(4′-(2-((2S)-1-((4-chlorophenyl)acetyl)-2-pyrrolidinyl)-1H-imidazol-5-yl)-4-biphenylyl)-1H-imidazol-2-yl)-1-pyrrolidinyl)-2-oxo-1-phenylethyl)carbamate] was run?
The pEC50 was 7.00 to 9.00.

`CCN(CC)[C@@H](C(=O)N1CCC[C@H]1c1ncc(-c2ccc(-c3ccc(-c4cnc([C@@H]5CCCN5C(=O)[C@H](Cc5ccncc5)NC(=O)OC)[nH]4)cc3)cc2)[nH]1)c1ccccc1` [cj-89, methyl ((1S)-2-((2S)-2-(5-(4′-(2-((2S)-1-((2R)-2-(diethylamino)-2-phenylacetyl)-2-pyrrolidinyl)-1H-imidazol-5-yl)-4-biphenylyl)-1H-imidazol-2-yl)-1-pyrrolidinyl)-2-oxo-1-(4-pyridinylmethyl)ethyl)carbamate] was tested. Which pEC50 did it give?
The pEC50 was 9.00 to 12.00.

How did the pEC50 turn out when `CN(C)[C@@H](C(=O)N1CCC[C@H]1c1ncc(-c2ccc(-c3ccc(-c4cnc([C@@H]5CCCN5C(=O)[C@@H]5CCN(Cc6ccccc6)C5)[nH]4)cc3)cc2)[nH]1)c1ccccc1` [Example 94-17, (1R)-2-((2S)-2-(5-(4′-(2-((2S)-1-(((3R)-1-benzyl-3-pyrrolidinyl)carbonyl)-2-pyrrolidinyl)-1H-imidazol-5-yl)-4-biphenylyl)-1H-imidazol-2-yl)-1-pyrrolidinyl)-N,N-dimethyl-2-oxo-1-phenylethanamine] was run?
The pEC50 was 9.00 to 12.00.

With `C[C@@H](C(=O)N1CCC[C@H]1c1ncc(-c2ccc(-c3ccc(-c4cnc([C@@H]5CCCN5C(=O)[C@H](C)N(C)Cc5ccccc5)[nH]4)cc3)cc2)[nH]1)N(C)Cc1ccccc1` [Example 24-4f, (2S,2′S)-1,1′-(4,4′-biphenyldiylbis(1H-imidazole-5,2-diyl(2S)-2,1-pyrrolidinediyl))bis(N-benzyl-N-methyl-1-oxo-2-propanamine)] as the compound, how does the pEC50 read?
Its pEC50 is 6.00 to 7.00.

`COC(=O)N[C@@H](C(=O)N(C)[C@@H](C)c1ncc(-c2ccc(-c3ccc(-c4cnc([C@@H]5CCCN5C(=O)[C@@H](c5ccccc5)N(C)C)[nH]4)cc3)cc2)[nH]1)c1ccccc1` [Example 131.1-1, methyl ((1R)-2-(((1S)-1-(5-(4′-(2-((2S)-1-((2R)-2-(dimethylamino)-2-phenylacetyl)-2-pyrrolidinyl)-1H-imidazol-5-yl)-4-biphenylyl)-1H-imidazol-2-yl)ethyl)(methyl)amino)-2-oxo-1-phenylethyl)carbamate] was tested. Which pEC50 did it give?
The pEC50 was 9.00 to 12.00.

How did the pEC50 turn out when `COC(=O)N[C@H](C(=O)N1CCC[C@H]1c1ncc(-c2ccc(-c3ccc(-c4nc([C@@H]5CCCN5C(=O)[C@@H](NC(=O)OC)[C@@H](C)OC)[nH]c4C)cc3)cc2)[nH]1)C(C)OC` (stereo in doubt) [Example E5f, methyl ((1S,2R)-2-methoxy-1-(((2S)-2-(4-(4′-(2-((2S)-1-(N-(methoxycarbonyl)-O-methyl-L-threonyl)-2-pyrrolidinyl)-4-methyl-1H-imidazol-5-yl)-4-biphenylyl)-1H-imidazol-2-yl)-1-pyrrolidinyl)carbonyl)propyl)carbamate] was run?
Its pEC50 is 9.00 to 12.00.

Source: US8574563B2 (Bristol-Myers Squibb Company, priority 2006, dated 2013)
